Columns and labels:
Format in all cases: cell-based
[1] = system: Co-cultivation of A. fumigatus + C. albicans (MYA3626 + ATCC 90028); assay: Broth microdilution MIC assay against co-culture of fungal spores; conditions: Aspergillus fumigatus + Candida albicans co-culture; repeated MIC study (Table 4), agent alone; listed as Itraconazone
Experimental: Broth Microdilution Minimal Inhibitory Concentration (MIC) assays were performed to obtain the MIC values for Itraconazole and Ketoconazole with an antibiotic (Vancomycin or Tobramycin or Amikacin) against the two fungal strains.
The strains were maintained as a frozen glycerol stocks at −80° C. The fungal strains were prepared by thawing a glycerol stock, streaking and growing onto Sabouraud's Dextrose Agar (SDA) plates, overnight at 35±2° C. in aerobic conditions and used for the assay.
Antifungal agents: Itraconazole (Cat #16657, Lot #087K1322), Ketoconazole (Cat # K1003, Lot # SLBR1290V). Stocks were prepared in appropriate solvents following the CLSI guidelines. See, for example, Reference method for broth dilution antifungal susceptibility testing of filamentous fungi, approved standard, 2nd ed. CLSI document M38-A2, vol. 28. CLSI, Wayne, Pa. (2008).
The completely synthetic medium RPMI-1640 (with glutamine, without bicarbonate, and with phenol red as a pH indicator) was buffered with 0.165 mol/L MOPS (3-[N-morpholino] propanesulfonic acid) buffer was used as the growth medium for the fungal strains. Overnight cultures of the fungal strains were grown on Difco™ Sabouraud's Dextrose Agar (SDA) plates at 35° C. To induce conidium and sporangiospore formation, the culture plates were transferred to incubator and grown for 5-7 days 30° C. or until good sporulation was obtained. […]

[2] = system: Aspergillus fumigatus+Candida albicans co-culture; assay: Checkerboard synergy assay, co-culture (FIG. 7, Table 4); conditions: combination of Aspergillus fumigatus and Candida albicans; read-out: MIC (agent alone, read from checkerboard FIG. 7)
Experimental: This study evaluated the synergistic activity of 2 antifungal agents (Itraconazole and Ketoconazole) with an antibiotic (Vancomycin or Tobramycin or Amikacin) against the spores of 2 fungi; Aspergillus fumigatus MYA3626 and Candida albicans ATCC 90028; individually as well as in co-cultivation (Aspergillus fumigatus+Candida albicans). Synergy testing was carried out as per checkerboard assay by Victor Lorian methodology. See, for example, Lorian, V. Antibiotics in Laboratory Medicine. Edition 5: (2005).
In vitro activity of the test articles were tested in combination by the Checkerboard assay. See, for example, Lorian, V. Antibiotics in Laboratory Medicine. Edition 5: (2005). The assay was carried out in duplicates. The starting concentrations for the test articles was determined as per the MIC data. Two-fold serial dilutions of 8×MIC for the antifungal agents; Itraconazole and Ketoconazole was performed separately. When Itraconazole and Ketoconazole were combined in a microtiter plate, the concentration of both agents was 2×MIC. […] The plates were incubated at 35° C. for 3-5 days. The assay plates were visually inspected to confirm the MIC endpoint and used to calculate the Fractional Inhibitory Concentration (FIC) Index to determine any synergistic interaction.
The FIC Index was calculated as follows: […]

Candida albicans = assay: Culture sensitivity, Patient 7 isolate; conditions: Patient 7 Candida albicans culture
Source text: (§1) The patient underwent the standard workup for CRS, sleep disorder, and nasal obstruction, plus our diagnostic skin test and sinus CT scan.

S. aureus, a bacteria = assay: Culture sensitivity, Patient 7 isolate; conditions: Patient 7 bacterial culture
Source text: as §1

| MIC [1] | MIC [2] | SMILES | Culture sensitivity (Candida albicans) | Culture sensitivity (S. aureus, a bacteria) |
| --- | --- | --- | --- | --- |
| 1 µg/mL | > 0.5 µg/mL | CCC(C)n1ncn(-c2ccc(N3CCN(c4ccc(OCC5COC(Cn6cncn6)(c6ccc(Cl)cc6Cl)O5)cc4)CC3)cc2)c1=O (centres unmarked) [Itraconazole] |  |  |
|  | > 4 µg/mL | CC(=O)N1CCN(c2ccc(OCC3COC(Cn4ccnc4)(c4ccc(Cl)cc4Cl)O3)cc2)CC1 (centres unmarked) [Ketoconazole] | sensitive |  |
|  |  | NC[C@H]1O[C@H](O[C@H]2[C@H](O)[C@@H](O[C@H]3O[C@H](CO)[C@@H](O)[C@H](N)[C@H]3O)[C@H](N)C[C@@H]2N)[C@H](N)C[C@@H]1O [tobramycin] |  | sensitive |

— patent US20180050034A1, “ANTIFUNGAL TREATMENT OF CROHN'S DISEASE” (Gerbe Labs Inc., priority 2016, published 2018)
